Measured values reported in patent US20260226493A1, “HERBICIDE RESISTANT PLANTS” (SYNGENTA CROP PROTECTION AG, priority 2023, published 2026).

Legend:
Experiment in all cases: BIO3-BIO1 mutant enzyme activity in the presence of herbicide, percentage inhibition (fluorometric DAPA assay)
Type in all cases: biochemical
Details in all cases: read-out: percentage inhibition
[1] = biological target: T1, Arabidopsis thaliana BIO3-BIO1 (BioDA) mutants (Arabidopsis thaliana, UniProt B0F481, Y511C)
T1 construct: with the predicted N-terminal mitochondrial transit peptide removed; 6xHis-tag (N); thrombin cleavage site (N); made in house; host or cells: E. coli BL21 (DE3) bioA
In short: (§1)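 Percentage inhibition compares activity at one of three herbicide concentrations against DMSO, from o-phthalaldehyde-derivatised DAPA fluorescence (ex 410, em 470 nm). Purified N-His BIO3-BIO1 variants (50 nM, E. coli-expressed) saw herbicide 10 min at 20 °C in pH 8.6 EPPS buffer, then 20 μM KAPA plus 100 μM spermidine for 75 min at 20 °C.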

[2] = biological target: T2, Arabidopsis thaliana BIO3-BIO1 (BioDA) mutants (Arabidopsis thaliana, UniProt B0F481, P421L)
T2 construct: with the predicted N-terminal mitochondrial transit peptide removed; 6xHis-tag (N); thrombin cleavage site (N); made in house; host or cells: E. coli BL21 (DE3) bioA
In short: as §1

[3] = biological target: T3, Arabidopsis thaliana BIO3-BIO1 (BioDA) mutants (Arabidopsis thaliana, UniProt B0F481, L786S)
T3 construct: with the predicted N-terminal mitochondrial transit peptide removed; 6xHis-tag (N); thrombin cleavage site (N); made in house; host or cells: E. coli BL21 (DE3) bioA
In short: as §1

[4] = biological target: T4, Arabidopsis thaliana BIO3-BIO1 (BioDA) mutants (Arabidopsis thaliana, UniProt B0F481, F348C)
T4 construct: with the predicted N-terminal mitochondrial transit peptide removed; 6xHis-tag (N); thrombin cleavage site (N); made in house; host or cells: E. coli BL21 (DE3) bioA
In short: as §1

[5] = biological target: T5, Arabidopsis thaliana BIO3-BIO1 (BioDA) mutants (Arabidopsis thaliana, UniProt B0F481, C388D)
T5 construct: with the predicted N-terminal mitochondrial transit peptide removed; 6xHis-tag (N); thrombin cleavage site (N); made in house; host or cells: E. coli BL21 (DE3) bioA
In short: as §1

[6] = biological target: T6, Arabidopsis thaliana BIO3-BIO1 (BioDA) mutants (Arabidopsis thaliana, UniProt B0F481, P510E)
T6 construct: with the predicted N-terminal mitochondrial transit peptide removed; 6xHis-tag (N); thrombin cleavage site (N); made in house; host or cells: E. coli BL21 (DE3) bioA
In short: as §1

[7] = biological target: T7, Arabidopsis thaliana BIO3-BIO1 (BioDA) mutants (Arabidopsis thaliana, UniProt B0F481, Y511Q)
T7 construct: with the predicted N-terminal mitochondrial transit peptide removed; 6xHis-tag (N); thrombin cleavage site (N); made in house; host or cells: E. coli BL21 (DE3) bioA
In short: as §1

[8] = biological target: T8, Arabidopsis thaliana BIO3-BIO1 (BioDA) mutants (Arabidopsis thaliana, UniProt B0F481, A609I)
T8 construct: with the predicted N-terminal mitochondrial transit peptide removed; 6xHis-tag (N); thrombin cleavage site (N); made in house; host or cells: E. coli BL21 (DE3) bioA
In short: as §1

[9] = biological target: T9, Arabidopsis thaliana BIO3-BIO1 (BioDA) mutants (Arabidopsis thaliana, UniProt B0F481, A609W)
T9 construct: with the predicted N-terminal mitochondrial transit peptide removed; 6xHis-tag (N); thrombin cleavage site (N); made in house; host or cells: E. coli BL21 (DE3) bioA
In short: as §1

[10] = biological target: T10, Arabidopsis thaliana BIO3-BIO1 (BioDA) mutants (Arabidopsis thaliana, UniProt B0F481, Y511P)
T10 construct: with the predicted N-terminal mitochondrial transit peptide removed; 6xHis-tag (N); thrombin cleavage site (N); made in house; host or cells: E. coli BL21 (DE3) bioA
In short: as §1

[11] = biological target: T11, Arabidopsis thaliana BIO3-BIO1 (BioDA) mutants (Arabidopsis thaliana, UniProt B0F481, P421A)
T11 construct: with the predicted N-terminal mitochondrial transit peptide removed; 6xHis-tag (N); thrombin cleavage site (N); made in house; host or cells: E. coli BL21 (DE3) bioA
In short: as §1

[12] = biological target: T12, Arabidopsis thaliana BIO3-BIO1 (BioDA) mutants (Arabidopsis thaliana, UniProt B0F481, T512V)
T12 construct: with the predicted N-terminal mitochondrial transit peptide removed; 6xHis-tag (N); thrombin cleavage site (N); made in house; host or cells: E. coli BL21 (DE3) bioA
In short: as §1

T5 sequence (B0F481 23-833 C388D): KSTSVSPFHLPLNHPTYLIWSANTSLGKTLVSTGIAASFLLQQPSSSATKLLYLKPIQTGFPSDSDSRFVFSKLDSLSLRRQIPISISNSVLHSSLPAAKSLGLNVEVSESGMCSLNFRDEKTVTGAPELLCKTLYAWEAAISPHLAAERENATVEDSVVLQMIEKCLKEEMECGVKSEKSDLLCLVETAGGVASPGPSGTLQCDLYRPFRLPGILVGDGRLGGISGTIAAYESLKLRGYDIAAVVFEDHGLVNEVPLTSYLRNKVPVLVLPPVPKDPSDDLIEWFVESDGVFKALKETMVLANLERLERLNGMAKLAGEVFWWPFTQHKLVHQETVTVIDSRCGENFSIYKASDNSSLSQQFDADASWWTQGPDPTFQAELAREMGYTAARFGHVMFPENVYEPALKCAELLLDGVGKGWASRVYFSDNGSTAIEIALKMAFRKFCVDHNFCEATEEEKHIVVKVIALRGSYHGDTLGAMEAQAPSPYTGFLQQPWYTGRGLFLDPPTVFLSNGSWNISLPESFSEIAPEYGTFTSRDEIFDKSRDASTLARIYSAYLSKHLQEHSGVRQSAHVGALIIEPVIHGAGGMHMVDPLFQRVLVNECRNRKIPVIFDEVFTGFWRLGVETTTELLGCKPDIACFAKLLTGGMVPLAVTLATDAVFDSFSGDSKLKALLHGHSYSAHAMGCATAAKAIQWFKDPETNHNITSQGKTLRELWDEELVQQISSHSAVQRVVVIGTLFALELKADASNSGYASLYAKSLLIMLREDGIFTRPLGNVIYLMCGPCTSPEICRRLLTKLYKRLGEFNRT
T4 sequence (B0F481 23-833 F348C): as the sequence (B0F481 23-833 C388D) above, with F326C, D366C counted along it
T11 sequence (B0F481 23-833 P421A): as the sequence (B0F481 23-833 C388D) above, with D366C, P399A counted along it
T10 sequence (B0F481 23-833 Y511P): as the sequence (B0F481 23-833 C388D) above, with D366C, Y489P counted along it
T12 sequence (B0F481 23-833 T512V): as the sequence (B0F481 23-833 C388D) above, with D366C, T490V counted along it
T7 sequence (B0F481 23-833 Y511Q): as the sequence (B0F481 23-833 C388D) above, with D366C, Y489Q counted along it
T2 sequence (B0F481 23-833 P421L): as the sequence (B0F481 23-833 C388D) above, with D366C, P399L counted along it
T9 sequence (B0F481 23-833 A609W): as the sequence (B0F481 23-833 C388D) above, with D366C, A587W counted along it
T1 sequence (B0F481 23-833 Y511C): as the sequence (B0F481 23-833 C388D) above, with D366C, Y489C counted along it
T8 sequence (B0F481 23-833 A609I): as the sequence (B0F481 23-833 C388D) above, with D366C, A587I counted along it
T6 sequence (B0F481 23-833 P510E): as the sequence (B0F481 23-833 C388D) above, with D366C, P488E counted along it
T3 sequence (B0F481 23-833 L786S): as the sequence (B0F481 23-833 C388D) above, with D366C, L764S counted along it

Which inhibition at 0.2 µM [1] does the source give for `CCn1c(C)c(-c2ccc(F)cc2F)c(=O)c(C(=O)O)c1-c1ccc(Cl)c(Cl)c1` [Compound C, 2-(3,4-dichlorophenyl)-5-(2,4-difluorophenyl)-1-ethyl-6-methyl-4-oxo-pyridine-3-carboxylic acid] here?
The inhibition at 0.2 µM was 33%.

And the inhibition at 1 µM [1]?
The inhibition at 1 µM was 86%.

What about the inhibition at 5 µM [1] of the same molecule?
The inhibition at 5 µM was 98%.

What about the inhibition at 0.2 µM [2] of the same molecule?
The inhibition at 0.2 µM was 4%.

And the inhibition at 1 µM [2]?
The inhibition at 1 µM was 35%.

What about the inhibition at 5 µM [2] of the same molecule?
Its inhibition at 5 µM is 67%.

What about the inhibition at 0.2 µM [3] of the same molecule?
Its inhibition at 0.2 µM is 26%.

And the inhibition at 1 µM [3]?
Its inhibition at 1 µM is 84%.

And the inhibition at 5 µM [3]?
Its inhibition at 5 µM is 98%.

And the inhibition at 0.2 µM [4]?
The inhibition at 0.2 µM was 0%.

What about the inhibition at 1 µM [4] of the same molecule?
Its inhibition at 1 µM is 0%.

What about the inhibition at 5 µM [4] of the same molecule?
Its inhibition at 5 µM is 0%.

And the inhibition at 0.2 µM [5]?
Its inhibition at 0.2 µM is 5%.

What about the inhibition at 1 µM [5] of the same molecule?
The inhibition at 1 µM was 0%.

What about the inhibition at 5 µM [5] of the same molecule?
The inhibition at 5 µM was 9%.

And the inhibition at 0.2 µM [6]?
Its inhibition at 0.2 µM is 8%.

And the inhibition at 1 µM [6]?
Its inhibition at 1 µM is 38%.

What about the inhibition at 5 µM [6] of the same molecule?
The inhibition at 5 µM was 74%.

And the inhibition at 0.2 µM [7]?
The inhibition at 0.2 µM was 78%.

What about the inhibition at 1 µM [7] of the same molecule?
The inhibition at 1 µM was 97%.

What about the inhibition at 5 µM [7] of the same molecule?
The inhibition at 5 µM was 98%.

And the inhibition at 0.2 µM [8]?
The inhibition at 0.2 µM was 7%.

And the inhibition at 1 µM [8]?
Its inhibition at 1 µM is 24%.

What about the inhibition at 5 µM [8] of the same molecule?
The inhibition at 5 µM was 42%.

What about the inhibition at 0.2 µM [9] of the same molecule?
Its inhibition at 0.2 µM is 21%.

What about the inhibition at 1 µM [9] of the same molecule?
The inhibition at 1 µM was 33%.

And the inhibition at 5 µM [9]?
Its inhibition at 5 µM is 38%.

What about the inhibition at 0.2 µM [10] of the same molecule?
Its inhibition at 0.2 µM is 53%.

What about the inhibition at 1 µM [10] of the same molecule?
The inhibition at 1 µM was 95%.

And the inhibition at 5 µM [10]?
Its inhibition at 5 µM is 99%.

What about the inhibition at 0.2 µM [11] of the same molecule?
The inhibition at 0.2 µM was 16%.

What about the inhibition at 1 µM [11] of the same molecule?
The inhibition at 1 µM was 16%.

And the inhibition at 5 µM [11]?
The inhibition at 5 µM was 35%.

And the inhibition at 0.2 µM [12]?
Its inhibition at 0.2 µM is 51%.

What about the inhibition at 1 µM [12] of the same molecule?
The inhibition at 1 µM was 81%.

What about the inhibition at 5 µM [12] of the same molecule?
Its inhibition at 5 µM is 96%.

With `CCn1c(Cn2ccc(C(F)(F)F)n2)cc(=O)c(C(=O)O)c1-c1ccc(Cl)c(Cl)c1` [Compound L, 2-(3,4-dichlorophenyl)-1-ethyl-4-oxo-6-[[3-(trifluoromethyl)pyrazol-1-yl]methyl]pyridine-3-carboxylic acid] as the molecule, how does the inhibition at 0.01 µM [2] read?
The inhibition at 0.01 µM was 0%.

What about the inhibition at 0.075 µM [2] of the same molecule?
Its inhibition at 0.075 µM is 10%.

What about the inhibition at 0.5 µM [2] of the same molecule?
The inhibition at 0.5 µM was 45%.

And the inhibition at 0.01 µM [3]?
The inhibition at 0.01 µM was 11%.

And the inhibition at 0.075 µM [3]?
Its inhibition at 0.075 µM is 31%.

And the inhibition at 0.5 µM [3]?
The inhibition at 0.5 µM was 93%.

And the inhibition at 0.01 µM [4]?
Its inhibition at 0.01 µM is 0%.

What about the inhibition at 0.075 µM [4] of the same molecule?
The inhibition at 0.075 µM was 0%.

And the inhibition at 0.5 µM [4]?
The inhibition at 0.5 µM was 29%.

What about the inhibition at 0.01 µM [5] of the same molecule?
Its inhibition at 0.01 µM is 0%.

And the inhibition at 0.075 µM [5]?
The inhibition at 0.075 µM was 0%.

What about the inhibition at 0.5 µM [5] of the same molecule?
Its inhibition at 0.5 µM is 6%.

What about the inhibition at 0.01 µM [6] of the same molecule?
Its inhibition at 0.01 µM is 0%.

What about the inhibition at 0.075 µM [6] of the same molecule?
Its inhibition at 0.075 µM is 11%.

What about the inhibition at 0.5 µM [6] of the same molecule?
The inhibition at 0.5 µM was 59%.

And the inhibition at 0.01 µM [8]?
The inhibition at 0.01 µM was 29%.

And the inhibition at 0.075 µM [8]?
Its inhibition at 0.075 µM is 20%.

What about the inhibition at 0.5 µM [8] of the same molecule?
The inhibition at 0.5 µM was 0%.

What about the inhibition at 0.01 µM [9] of the same molecule?
Its inhibition at 0.01 µM is 35%.

And the inhibition at 0.075 µM [9]?
The inhibition at 0.075 µM was 46%.

And the inhibition at 0.5 µM [9]?
The inhibition at 0.5 µM was 66%.

And the inhibition at 0.01 µM [11]?
The inhibition at 0.01 µM was 15%.

What about the inhibition at 0.075 µM [11] of the same molecule?
Its inhibition at 0.075 µM is 16%.

And the inhibition at 0.5 µM [11]?
The inhibition at 0.5 µM was 21%.

What does the source list for `CCOC(=O)c1nn(-c2ccc3c(c2)OC(F)(F)C(F)(F)O3)c2cccc(C(C)=O)c2c1=O` [Compound A, ethyl 5-acetyl-4-oxo-1-(2,2,3,3-tetrafluoro-1,4-benzodioxin-6-yl)cinnoline-3-carboxylate]?
inhibition at 1 µM [1]: 0%; inhibition at 1 µM [2]: 61%; inhibition at 1 µM [3]: 80%; inhibition at 1 µM [4]: 0%; inhibition at 1 µM [5]: 14%; inhibition at 1 µM [6]: 26%; inhibition at 1 µM [7]: 21%; inhibition at 1 µM [8]: 24%; inhibition at 1 µM [9]: 34%; inhibition at 1 µM [10]: 28%; inhibition at 1 µM [11]: 0%; inhibition at 1 µM [12]: 58%

Which results are given for `CCn1c(-c2ccc(Cl)c(Cl)c2)c(C(=O)O)c(=O)c2cc(F)ccc21` [Compound M, 2-(3,4-dichlorophenyl)-1-ethyl-6-fluoro-4-oxo-quinoline-3-carboxylic acid]?
inhibition at 0.2 µM [1]: 16%; inhibition at 1 µM [1]: 67%; inhibition at 5 µM [1]: 92%; inhibition at 0.2 µM [2]: 0%; inhibition at 1 µM [2]: 6%; inhibition at 5 µM [2]: 31%; inhibition at 0.2 µM [3]: 33%; inhibition at 1 µM [3]: 81%; inhibition at 5 µM [3]: 97%; inhibition at 0.2 µM [4]: 14%; inhibition at 1 µM [4]: 3%; inhibition at 5 µM [4]: 0%; inhibition at 0.2 µM [5]: 0%; inhibition at 1 µM [5]: 0%; inhibition at 5 µM [5]: 0%; inhibition at 0.2 µM [6]: 0%; inhibition at 1 µM [6]: 25%; inhibition at 5 µM [6]: 61%; inhibition at 0.2 µM [7]: 54%; inhibition at 1 µM [7]: 87%; inhibition at 5 µM [7]: 95%; inhibition at 0.2 µM [8]: 2%; inhibition at 1 µM [8]: 0%; inhibition at 5 µM [8]: 78%; inhibition at 0.2 µM [9]: 24%; inhibition at 1 µM [9]: 31%; inhibition at 5 µM [9]: 52%; inhibition at 0.2 µM [10]: 48%; inhibition at 1 µM [10]: 89%; inhibition at 5 µM [10]: 98%; inhibition at 0.2 µM [11]: 15%; inhibition at 1 µM [11]: 11%; inhibition at 5 µM [11]: 17%; inhibition at 0.2 µM [12]: 57%; inhibition at 1 µM [12]: 77%; inhibition at 5 µM [12]: 94%
